# Data published in patent US5140009A (Tap Pharmaceuticals, Inc., priority 1990, dated 1992).
# Square brackets hold non-standard residues; d marks the D form. Peptide text beside a SMILES is read from it. * marks the point of attachment. Propanoyl(3-(4-F-phenyl)) = O=C(CCc1ccc(F)cc1)*; Hydrocinnamoyl(2,4-F2) = O=C(CCc1ccc(F)cc1F)*; Propanoyl(3-(4-Cl-Ph)) = O=C(CCc1ccc(Cl)cc1)*; dPhe(4-Cl) = N[C@H](Cc1ccc(Cl)cc1)C(=O)O; 1Nal = N[C@@H](Cc1cccc2ccccc12)C(=O)O; d1Nal = N[C@H](Cc1cccc2ccccc12)C(=O)O; NMeY = CN[C@@H](Cc1ccc(O)cc1)C(=O)O; hhPhe = N[C@@H](CCCc1ccccc1)C(=O)O; d3Pal = N[C@H](Cc1cccnc1)C(=O)O; d2Thi = N[C@H](Cc1cccs1)C(=O)O; Nicotinoyl = O=C(c1cccnc1)*; X9 = O=C(CCc1ccc(Br)cc1)*; Bn = c1ccc(C*)cc1
# Molecular target: T1, LHRH receptors (Rattus norvegicus, UniProt P30969)
# T1 construct: Pituitary membranes containing LHRH receptors are prepared in batches from quick-frozen rat pituitaries; tissue Hilltop Labs; host or cells: rat pituitary membranes
# T1 sequence (P30969 1-327): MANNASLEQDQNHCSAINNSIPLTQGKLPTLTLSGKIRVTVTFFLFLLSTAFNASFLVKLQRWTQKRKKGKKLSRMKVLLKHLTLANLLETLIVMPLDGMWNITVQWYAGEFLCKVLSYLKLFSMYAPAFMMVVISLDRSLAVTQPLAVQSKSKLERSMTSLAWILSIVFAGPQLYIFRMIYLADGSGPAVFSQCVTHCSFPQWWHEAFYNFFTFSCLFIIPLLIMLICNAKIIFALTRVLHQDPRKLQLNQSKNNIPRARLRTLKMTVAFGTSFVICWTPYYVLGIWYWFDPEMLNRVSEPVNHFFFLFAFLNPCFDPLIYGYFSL
# Assay: Receptor Binding (radioligand receptor binding assay)
# Details: Receptor Binding pkI, table 4; rat pituitary membranes, radioligand 50 pM, 2 hours at 4° C.
row,SMILES,Ki [nM]
1,"CC(C)C[C@H](NC(=O)[C@@H](CCCCN)NC(=O)[C@H](Cc1ccc(O)cc1)NC(=O)[C@H](COCc1ccccc1)NC(=O)[C@@H](Cc1cccs1)NC(=O)CCc1ccc(Cl)cc1)C(=O)N[C@@H](CCCNC(=N)N)C(=O)N1CCC[C@H]1C(=O)N[C@H](C)C(N)=O [Compound 167, (3-10)[N-(3-(4-Chlorophenyl)propionyl)-D-Thia^3 -Ser(O-Bzl)^4 -D-Lys^6 -D-Ala^10]LHRH] ({Propanoyl(3-(4-Cl-Ph))}-[d2Thi]S(Bn)Y[dK]LRP[dA]-NH2)",0.457

# Same assay, conditions: table 4; rat pituitary membranes, radioligand 50 pM, 2 hours at 4° C.; read-out: Receptor Binding pkI (converted)
row,SMILES,Ki [nM]
1,"CCNC(=O)[C@@H]1CCCN1C(=O)[C@H](CCCN=C(N)N)NC(=O)[C@H](CC(C)C)NC(=O)[C@@H](Cc1c[nH]c2ccccc12)NC(=O)[C@H](Cc1ccc(O)cc1)N(C)C(=O)[C@H](CO)NC(=O)[C@@H](Cc1c[nH]c2ccccc12)NC(=O)CCc1ccc(F)cc1F [Compound 155, (3-9)[N-(3-(2,4-diFluorophenyl)propionyl) -D-Trp^3,6 -NMeTyr^5 -Pro^9 NHEt]LHRH] ({Hydrocinnamoyl(2,4-F2)}-[dW]S[NMeY][dW]LRP-NHEt)",0.049
2,"CCNC(=O)[C@@H]1CCCN1C(=O)[C@H](CCCN=C(N)N)NC(=O)[C@H](CC(C)C)NC(=O)[C@@H](Cc1c[nH]c2ccccc12)NC(=O)[C@H](Cc1ccc(O)cc1)N(C)C(=O)[C@H](CO)NC(=O)[C@@H](Cc1c[nH]c2ccccc12)NC(=O)CCc1ccc(Cl)cc1 [Compound 156, (3-9)[N-(3-(4-Chlorophenyl)propionyl) -D-Trp^3,6 -NMeTyr^5 -Pro^9 NHEt]LHRH] ({Propanoyl(3-(4-Cl-Ph))}-[dW]S[NMeY][dW]LRP-NHEt)",0.0692
3,"CCNC(=O)[C@@H]1CCCN1C(=O)[C@H](CCCNC(=N)N)NC(=O)[C@H](CC(C)C)NC(=O)[C@@H](Cc1c[nH]c2ccccc12)NC(=O)[C@H](Cc1ccc(O)cc1)N(C)C(=O)[C@H](CO)NC(=O)[C@@H](Cc1cccc2ccccc12)NC(=O)CCc1ccc(F)cc1 [Compound 157, (3-9)[N-(3-(4-Fluorophenyl)propionyl)-D -1-Nal^3 -NMeTyr^5 -D-Trp^6 -Pro^9 NHEt]LHRH] ({Propanoyl(3-(4-F-phenyl))}-[d1Nal]S[NMeY][dW]LRP-NHEt)",0.0479
4,"CCNC(=O)[C@@H]1CCCN1C(=O)[C@H](CCCNC(=N)N)NC(=O)[C@H](CC(C)C)NC(=O)[C@@H](Cc1c[nH]c2ccccc12)NC(=O)[C@H](Cc1ccc(O)cc1)N(C)C(=O)[C@H](CO)NC(=O)[C@H](Cc1cccc2ccccc12)NC(=O)CCc1ccc(F)cc1 [Compound 158, (3-9)[N-(3-(4-Fluorophenyl)propionyl) -1-Nal^3 -NMeTyr^5 -DTrp^6 -Pro^9 NHEt]LHRH] ({Propanoyl(3-(4-F-phenyl))}-[1Nal]S[NMeY][dW]LRP-NHEt)",0.0174
5,"CCNC(=O)[C@@H]1CCCN1C(=O)[C@H](CCCNC(=N)N)NC(=O)[C@H](CC(C)C)NC(=O)[C@@H](Cc1c[nH]c2ccccc12)NC(=O)[C@H](Cc1ccc(O)cc1)N(C)C(=O)[C@H](CO)NC(=O)[C@@H](Cc1cccc2ccccc12)NC(=O)CCc1ccc(Br)cc1 [Compound 159, (3-9)[N-(3-(4-Bromophenyl)propionyl)-D -1-Nal^3 -NMeTyr^5 -DTrp^6 -Pro^9 NHEt]LHRH] (X9-[d1Nal]S[NMeY][dW]LRP-NHEt)",0.0562
6,"CCNC(=O)[C@@H]1CCCN1C(=O)[C@H](CCCNC(=N)N)NC(=O)[C@H](CC(C)C)NC(=O)[C@@H](Cc1c[nH]c2ccccc12)NC(=O)[C@H](Cc1ccc(O)cc1)N(C)C(=O)[C@H](CO)NC(=O)[C@H](Cc1cccc2ccccc12)NC(=O)CCc1ccc(Br)cc1 [Compound 160, (3-9)[N-(3-(4-Bromophenyl)propionyl) -1-Nal^3 -NMeTyr^5 -DTrp^6 -Pro^9 NHEt]LHRH] (X9-[1Nal]S[NMeY][dW]LRP-NHEt)",0.11
7,"CC(C)C[C@H](NC(=O)[C@@H](Cc1c[nH]c2ccccc12)NC(=O)[C@H](Cc1ccc(O)cc1)NC(=O)[C@H](CO)NC(=O)[C@@H](Cc1c[nH]c2ccccc12)NC(=O)CCc1ccc(F)cc1)C(=O)N[C@@H](CCCNC(=N)N)C(=O)N1CCC[C@H]1C(=O)N[C@H](C)C(N)=O [Compound 162, (3-10)[N-(3-(4-Fluorophenyl)propionyl)-D-Trp^3,6 -D-Ala^10]LHRH] ({Propanoyl(3-(4-F-phenyl))}-[dW]SY[dW]LRP[dA]-NH2)",0.0105
8,"CC(C)C[C@H](NC(=O)[C@@H](Cc1c[nH]c2ccccc12)NC(=O)[C@H](Cc1ccc(O)cc1)N(C)C(=O)[C@H](CO)NC(=O)[C@@H](Cc1c[nH]c2ccccc12)NC(=O)CCc1ccc(F)cc1)C(=O)N[C@@H](CCCNC(=N)N)C(=O)N1CCC[C@H]1C(=O)N[C@H](C)C(N)=O [Compound 164, (3-10)[N-(3-(4-Fluorophenyl)propionyl)-D-Trp^3,6 -NMeTyr^5 -D-Ala^10]LHRH] ({Propanoyl(3-(4-F-phenyl))}-[dW]S[NMeY][dW]LRP[dA]-NH2)",0.0537
9,"CC(C)C[C@H](NC(=O)[C@@H](CCCCN)NC(=O)[C@H](Cc1ccc(O)cc1)N(C)C(=O)[C@H](COCc1ccccc1)NC(=O)[C@@H](Cc1cccs1)NC(=O)CCc1ccc(Cl)cc1)C(=O)N[C@@H](CCCNC(=N)N)C(=O)N1CCC[C@H]1C(=O)N[C@H](C)C(N)=O [Compound 168, (3-10)[N-(3-(4-Chlorophenyl)propionyl)-D-Thia^3 -Ser(O-Bzl)^4 -NMeTyr^5 -D-Lys^6 -D-Ala^10]LHRH] ({Propanoyl(3-(4-Cl-Ph))}-[d2Thi]S(Bn)[NMeY][dK]LRP[dA]-NH2)",0.129
10,"CC(C)C[C@H](NC(=O)[C@@H](CCCCN)NC(=O)[C@H](Cc1ccc(O)cc1)N(C)C(=O)[C@H](CCCc1ccccc1)NC(=O)[C@@H](Cc1cccc2ccccc12)NC(=O)CCc1ccc(F)cc1)C(=O)N[C@@H](CCCNC(=N)N)C(=O)N1CCC[C@H]1C(=O)N[C@H](C)C(N)=O [Compound 176, (3-10)[N-(3-(4-Fluorophenyl)propionyl)-D-1-Nal^3-hhPhe^4 -NMeTyr^5 -D-Lys^6 -D-Ala^10]LHRH] ({Propanoyl(3-(4-F-phenyl))}-[d1Nal][hhPhe][NMeY][dK]LRP[dA]-NH2)",2.88

# The next lines start with the values.
row,Ki [nM],SMILES
1,0.0151,"CC(C)C[C@H](NC(=O)[C@@H](CCCCNC(=O)c1cccnc1)NC(=O)[C@H](Cc1ccc(O)cc1)N(C)C(=O)[C@H](CO)NC(=O)[C@@H](Cc1cccs1)NC(=O)CCc1ccc(F)cc1)C(=O)N[C@@H](CCCNC(=N)N)C(=O)N1CCC[C@H]1C(=O)N[C@H](C)C(N)=O [Compound 161, N-[3-(4-Fluorophenyl)propionyl]-D-Thia-Ser-NMeTyr-D -Lys(N-epsilon-nicotinyl)-Leu-Arg-Pro-D-AlaNH2] ({Propanoyl(3-(4-F-phenyl))}-[d2Thi]S[NMeY][dK](Nicotinoyl)LRP[dA]-NH2)"
2,0.0204,"CC(C)C[C@H](NC(=O)[C@@H](CCCCN)NC(=O)[C@H](Cc1ccc(O)cc1)N(C)C(=O)[C@H](CO)NC(=O)[C@@H](Cc1cccnc1)NC(=O)CCc1ccc(F)cc1)C(=O)N[C@@H](CCCNC(=N)N)C(=O)N1CCC[C@H]1C(=O)N[C@H](C)C(N)=O [Compound 170, (3-10)[N-(3-(4-Fluorophenyl)propionyl)-D-3-Pal^3 -NMeTyr^5 -D-Lys^6 -D-Ala^10]LHRH] ({Propanoyl(3-(4-F-phenyl))}-[d3Pal]S[NMeY][dK]LRP[dA]-NH2)"
3,0.0676,CC(C)C[C@H](NC(=O)[C@@H](CCCCNC(=O)c1cccnc1)NC(=O)[C@H](Cc1ccc(O)cc1)N(C)C(=O)[C@H](CO)NC(=O)[C@@H](Cc1cccnc1)NC(=O)CCc1ccc(F)cc1)C(=O)N[C@@H](CCCNC(=N)N)C(=O)N1CCC[C@H]1C(=O)N[C@H](C)C(N)=O [Compound 171] ({Propanoyl(3-(4-F-phenyl))}-[d3Pal]S[NMeY][dK](Nicotinoyl)LRP[dA]-NH2)
4,0.00575,"CC(C)C[C@H](NC(=O)[C@@H](CCCCN)NC(=O)[C@H](Cc1ccc(O)cc1)N(C)C(=O)[C@H](CO)NC(=O)[C@@H](Cc1c[nH]c2ccccc12)NC(=O)CCc1ccc(F)cc1)C(=O)N[C@@H](CCCNC(=N)N)C(=O)N1CCC[C@H]1C(=O)N[C@H](C)C(N)=O [Compound 173, (3-10)[N-(3-(4-Fluorophenyl)propionyl)-D-Trp^3 -NMeTyr^5 -D-Lys^6 -D-Ala^10]LHRH] ({Propanoyl(3-(4-F-phenyl))}-[dW]S[NMeY][dK]LRP[dA]-NH2)"
5,0.0132,"CC(C)C[C@H](NC(=O)[C@@H](CCCCNC(=O)c1cccnc1)NC(=O)[C@H](Cc1ccc(O)cc1)N(C)C(=O)[C@H](CO)NC(=O)[C@@H](Cc1cccc2ccccc12)NC(=O)CCc1ccc(F)cc1)C(=O)N[C@@H](CCCNC(=N)N)C(=O)N1CCC[C@H]1C(=O)N[C@H](C)C(N)=O [Compound 174, (3-10)[N-(3-(4-Fluorophenyl)propionyl)-D-1-Nal^3 -NMeTyr^5 -D-Lys^6 (N-epsilon-nicotinyl)-D-Ala^10]LHRH] ({Propanoyl(3-(4-F-phenyl))}-[d1Nal]S[NMeY][dK](Nicotinoyl)LRP[dA]-NH2)"
6,0.00631,"CC(C)C[C@H](NC(=O)[C@@H](CCCCN)NC(=O)[C@H](Cc1ccc(O)cc1)N(C)C(=O)[C@H](CO)NC(=O)[C@@H](Cc1ccc(Cl)cc1)NC(=O)CCc1ccc(F)cc1)C(=O)N[C@@H](CCCNC(=N)N)C(=O)N1CCC[C@H]1C(=O)N[C@H](C)C(N)=O [Compound 175, (3-10)[N-(3-(4-Fluorophenyl)propionyl)-D-4-Cl-Phe^3 -NMeTyr^5 -D-Lys^6 -D-Ala^10]LHRH] ({Propanoyl(3-(4-F-phenyl))}-[dPhe(4-Cl)]S[NMeY][dK]LRP[dA]-NH2)"
